Converted amounts (≈) assume the structure as drawn. Counter-ions that a name gives are not always drawn. Like-named read-outs stand apart in the source and are kept apart here.
What was measured:
[1] = tested on: ADP induced platelet aggregation; assay: In vitro inhibition of ADP induced platelet aggregation (aggregometer method of Born, modified by Mustard); type: cell-based, rabbit; conditions: Oryctolagus cuniculus
Procedure: (§1) The aggregometer method of Born [G. V. R. Born: J.Physiol., London, 162, 67 (1962)] as modified by Mustard et al. [J. F. Mustard et al.: J.Lab.Clin.Med., 64, 548 (1964)] was used to assess the in vitro activity of various compounds as to inhibition of collagen and adenosine diphosphate (ADP) induced platelet aggregation. Platelet rich plasma (PRP) was separated by centrifugation from citrated (3.8%) rabbit blood. ADP in final concentration of […] prepared according to the method described by Evans et al. [G. Evans et al.: J.Exp. Med., 128, 877 (1968)] was used to induce aggregation. The test compounds were dissolved in buffer solution so that 0.05 ml added to PRP would yield the desired test concentration. Vehicle control trials were done and compared with aggregation induced in platelet rich plasma containing various concentrations of the test compounds. Dose response curves were obtained, and 50% inhibitive concentration (IC50) values were calculated.

[2] = tested on: collagen induced platelet aggregation; assay: In vitro inhibition of collagen induced platelet aggregation (aggregometer method of Born, modified by Mustard); type: cell-based, rabbit; conditions: Oryctolagus cuniculus
Procedure: as §1

[3] = tested on: Neuroleptic activity (Anti apomorphine test); assay: Neuroleptic activity (anti apomorphine test); type: in vivo, rat; conditions: for neuroleptic activity, in words: rat, in vivo
Text: No. ED50 (rat, s.c., mg/kg)
*P. A. J. Janssen et al.: ArzneimittelForschung, 15, 104-117 (1965)

[4] = tested on: ADP induced platelet aggregation; assay: Ex vivo inhibition of ADP induced aggregation in PRP after oral administration to rats; conditions: Rattus norvegicus, PRP 1 hour after oral administration, read-out: ED50, 50% inhibition of the aggregation (ADP)
Procedure: (§2) The conjugated ketone compounds [I] were also tested ex vivo in rats where ADP or collagen was used to induce aggregation in PRP samples obtained 1 hour after oral administration. Blood was drawn after dosing and the procedure of platelet aggregation was the same as the in vitro experiments. Inhibitory values were calculated compared with the activity of PRP samples of vehicle treated rats. The dose required to produce 50% inhibition of the aggregation (ED50) was determined by dose response data obtained in this manner.

[5] = tested on: collagen induced platelet aggregation; assay: Ex vivo inhibition of collagen induced aggregation in PRP after oral administration to rats; conditions: Rattus norvegicus, PRP 1 hour after oral administration, read-out: ED50, 50% inhibition of the aggregation (collagen)
Procedure: as §2

[6] = tested on: blood platelet aggregation; assay: Blood platelet anti-aggregation activity (general statements); type: cell-based, rabbit; conditions: compared with compound [A] / compounds of U.S. Pat. No. 4,012,515
Procedure: as §1

[7] = in vitro, ADP, Table 2, read-out: Blood platelet aggregation inhibitory activity IC50, ADP
[8] = in vitro, Collagen, Table 2, read-out: Blood platelet aggregation inhibitory activity IC50, Collagen
[9] = in vitro, rabbit PRP, ADP induced, Table 1, read-out: Inhibitory activity IC50, ADP
[10] = in vitro, rabbit PRP, collagen induced, Table 1, read-out: Inhibitory activity IC50, Collagen

SMILES | IC50 [1, 9] | IC50 [2, 10] | also measured
O=C(/C=C/CN1CCC(O)(c2cccc(C(F)(F)F)c2)CC1)c1ccc(F)cc1 [A, reference compound] |  |  | IC50 [1, 7]: 9 µg/mL (≈ 22.1 µM); IC50 [2, 8]: 3.5 µg/mL (≈ 8.59 µM); ED50 ([3]; Rattus norvegicus, sc, read-out: Neuroleptic activity (Anti apomorphine test) ED50): 0.1 mg/kg
CN(C)C/C=C/C(=O)c1ccccc1 [Compound 1] | 3.3 µg/mL (≈ 17.4 µM) | 2 µg/mL (≈ 10.6 µM) | 
CCN(CC)C/C=C/C(=O)c1ccccc1 [Compound 3, N-(4-Phenyl-4-oxo-2-trans-butenyl)-N,N-diethylamine hydrobromide] | 3.3 µg/mL | 1.5 µg/mL | IC50 [1, 7]: 3.3 µg/mL; IC50 [2, 8]: 1.5 µg/mL; ED50 [4]: 0.3 mg/kg; ED50 [5]: 3 mg/kg; neuroleptic activity, in words [3]: does not produce any slight degree of neuroleptic activity; neuroleptic activity, in words ([3]; sc): No effect at 10 mg/kg; blood platelet anti-aggregation activity, in words [6]: more potent than the compound [A] in blood platelet anti-aggregation activity
CN(C/C=C/C(=O)c1ccccc1)C12CC3CC(CC(C3)C1)C2 [Compound 7] | 3.6 µg/mL (≈ 11.6 µM) | 2.4 µg/mL (≈ 7.76 µM) | 
CN(C/C=C/C(=O)c1ccccc1)C1CCCCC1 [Compound 8] | 1.8 µg/mL (≈ 6.99 µM) | 3.7 µg/mL (≈ 14.4 µM) | 
O=C(/C=C/CN1CCCC1)c1ccccc1 [Compound 9] | 2.5 µg/mL (≈ 11.6 µM) | 1.2 µg/mL (≈ 5.57 µM) | 
O=C(/C=C/CN1CCCCC1)c1ccccc1 [Compound 10] | 5.2 µg/mL (≈ 22.7 µM) | 3.2 µg/mL (≈ 14 µM) | ED50 [5]: 2 mg/kg
CCN(CC)C/C=C/C(=O)c1ccccc1Cl [Compound 12] | 3.1 µg/mL (≈ 12.3 µM) | 2.8 µg/mL (≈ 11.1 µM) | 
O=C(/C=C/CN1CCCCC1)c1ccc(Br)cc1 [Compound 16] | 3.2 µg/mL (≈ 10.4 µM) | 3 µg/mL (≈ 9.73 µM) | 
CSc1ccccc1C(=O)/C=C/CN1CCCCC1 [Compound 21] | 3.2 µg/mL (≈ 11.6 µM) | 3.7 µg/mL (≈ 13.4 µM) | 
CSc1ccc(C(=O)/C=C/CN(C)C)cc1 [Compound 22] | 1.2 µg/mL (≈ 5.1 µM) | 2.2 µg/mL (≈ 9.35 µM) | 
CCN(CC)C/C=C/C(=O)c1ccc(SC)cc1 [Compound 23] | 1.4 µg/mL (≈ 5.31 µM) | 2.4 µg/mL (≈ 9.11 µM) | 
CCCN(C/C=C/C(=O)c1ccc(SC)cc1)CCC [Compound 24] | 3.6 µg/mL (≈ 12.4 µM) | 2.6 µg/mL (≈ 8.92 µM) | 
CSc1ccc(C(=O)/C=C/CN2CCCCC2)cc1 [Compound 26] | 1.2 µg/mL (≈ 4.36 µM) | 1.5 µg/mL (≈ 5.45 µM) | 
O=C(/C=C/CN1CCCCC1)c1ccc(C(F)(F)F)cc1 [Compound 28] | 2.7 µg/mL (≈ 9.08 µM) | 3.1 µg/mL (≈ 10.4 µM) | 
O=C(/C=C/CN1CCCCC1)c1ccc2ccccc2c1 [Compound 30] | 2.2 µg/mL (≈ 7.87 µM) | 2.2 µg/mL (≈ 7.87 µM) | 
O=C(/C=C/CN1CCCCC1)c1ccco1 [Compound 33] | 3.8 µg/mL (≈ 17.3 µM) | 2.2 µg/mL (≈ 10 µM) | 
CCN(CC)C/C=C/C(=O)c1cccs1 [Compound 34] | 3 µg/mL (≈ 13.4 µM) | 2.3 µg/mL (≈ 10.3 µM) | 
O=C(/C=C/CN1CCCCC1)c1cccs1 [Compound 35] | 2.8 µg/mL (≈ 11.9 µM) | 1.8 µg/mL (≈ 7.65 µM) | 
O=C(/C=C/CN1CC2CCC(CC2)C1)c1ccccc1 [Compound 36] | 2.7 µg/mL (≈ 10 µM) | 1.2 µg/mL (≈ 4.45 µM) | 
COc1ccc(Cc2nccc3cc(OC)c(OC)cc23)cc1OC [Papaverine, reference compound] |  |  | IC50 ([1]; read-out: Inhibitory activity IC50, ADP): 65 µg/mL (≈ 192 µM); IC50 ([2]; read-out: Inhibitory activity IC50, Collagen): 60 µg/mL (≈ 177 µM)

More lines, main results first:

IC50 [1, 9] | IC50 [2, 10] | SMILES | also measured
3 µg/mL (≈ 14.8 µM) | 2.2 µg/mL (≈ 10.8 µM) | CCN(C)C/C=C/C(=O)c1ccccc1 [Compound 2] | 
2.5 µg/mL (≈ 10.2 µM) | 1.3 µg/mL (≈ 5.3 µM) | CCCN(C/C=C/C(=O)c1ccccc1)CCC [Compound 4] | 
3.7 µg/mL (≈ 15.1 µM) | 1.6 µg/mL (≈ 6.52 µM) | CC(C)N(C/C=C/C(=O)c1ccccc1)C(C)C [Compound 5] | 
5.2 µg/mL (≈ 19 µM) | 2.7 µg/mL (≈ 9.87 µM) | CCCCN(C/C=C/C(=O)c1ccccc1)CCCC [Compound 6] | 
6 µg/mL (≈ 25.9 µM) | 1.8 µg/mL (≈ 7.78 µM) | CCN(CC)CC/C=C/C(=O)c1ccccc1 [Compound 11] | 
3.1 µg/mL (≈ 11.8 µM) | 3.1 µg/mL (≈ 11.8 µM) | O=C(/C=C/CN1CCCCC1)c1cccc(Cl)c1 [Compound 13] | 
1.6 µg/mL (≈ 6.36 µM) | 2.5 µg/mL (≈ 9.93 µM) | CCN(CC)C/C=C/C(=O)c1ccc(Cl)cc1 [Compound 14] | 
4.8 µg/mL (≈ 18.2 µM) | 1.6 µg/mL (≈ 6.07 µM) | O=C(/C=C/CN1CCCCC1)c1ccc(Cl)cc1 [Compound 15] | 
2.3 µg/mL (≈ 9.94 µM) | 1.5 µg/mL (≈ 6.48 µM) | CCN(CC)C/C=C/C(=O)c1ccc(C)cc1 [Compound 17] | 
2 µg/mL (≈ 8.22 µM) | 3.4 µg/mL (≈ 14 µM) | Cc1ccc(C(=O)/C=C/CN2CCCCC2)cc1 [Compound 18] | 
3.7 µg/mL (≈ 15 µM) | 3.5 µg/mL (≈ 14.2 µM) | CCN(CC)C/C=C/C(=O)c1ccc(OC)cc1 [Compound 19] | 
1.3 µg/mL (≈ 4.97 µM) | 3.7 µg/mL (≈ 14.2 µM) | CCN(CC)C/C=C/C(=O)c1ccc2c(c1)OCO2 [Compound 20] | 
3 µg/mL (≈ 11.5 µM) | 1.1 µg/mL (≈ 4.21 µM) | CSc1ccc(C(=O)/C=C/CN2CCCC2)cc1 [Compound 25] | 
3 µg/mL (≈ 10.5 µM) | 4.2 µg/mL (≈ 14.7 µM) | CCN(CC)C/C=C/C(=O)c1ccccc1C(F)(F)F [Compound 27] | 
1.25 µg/mL (≈ 4.68 µM) | 1.7 µg/mL (≈ 6.36 µM) | CCN(CC)C/C=C/C(=O)c1ccc2ccccc2c1 [Compound 29] | 
3 µg/mL (≈ 14.5 µM) | 1.8 µg/mL (≈ 8.68 µM) | CCN(CC)C/C=C/C(=O)c1ccco1 [Compound 31] | 
4.5 µg/mL (≈ 18 µM) | 5.8 µg/mL (≈ 23.3 µM) | CCCCCCN(C)C/C=C/C(=O)c1ccco1 [Compound 32] | 

Source: US4418079A, “Conjugated ketone compounds in preventing platelet thrombosis” (Sumitomo Chemical Company, Limited, priority 1978, dated 1983)
